Measurements taken from the supplement of paper PMC13380429.

Experiments:
Details in all cases: 72 h
[1] = system: HepG2; assay: relative viability EC50 (midpoint between 100% and the lowest measured viability); higher = less toxic
[2] = system: Calu-3; assay: as above
[3] = system: U2OS; assay: as above
[4] = system: Caco-2; assay: as above
[5] = system: Vero E6; assay: as above
[6] = system: HepG2; assay: drug sensitivity score (DSS) for viability; higher = more toxic; extreme values may be limits of the assay
[7] = system: Calu-3; assay: as above
[8] = system: U2OS; assay: as above
[9] = system: Caco-2; assay: as above
[10] = system: Vero E6; assay: as above
[11] = system: HepG2; assay: cell viability relative to DMSO; higher = less toxic
[12] = system: Calu-3; assay: as above
[13] = system: U2OS; assay: as above
[14] = system: Caco-2; assay: as above
[15] = system: Vero E6; assay: as above

Structure (SMILES)	relative viability EC50 [1] [µM]	relative viability EC50 [2] [µM]	relative viability EC50 [3] [µM]	relative viability EC50 [4] [µM]	relative viability EC50 [5] [µM]	drug sensitivity score [6]	drug sensitivity score [7]	drug sensitivity score [8]	drug sensitivity score [9]	drug sensitivity score [10]	cell viability ([11]; 1 nM) [%]	cell viability ([11]; 10 nM) [%]	cell viability ([11]; 100 nM) [%]	cell viability ([11]; 1000 nM) [%]	cell viability ([11]; 10000 nM) [%]	cell viability ([12]; 1 nM) [%]	cell viability ([12]; 10 nM) [%]	cell viability ([12]; 100 nM) [%]	cell viability ([12]; 1000 nM) [%]	cell viability ([12]; 10000 nM) [%]	cell viability ([13]; 1 nM) [%]	cell viability ([13]; 10 nM) [%]	cell viability ([13]; 100 nM) [%]	cell viability ([13]; 1000 nM) [%]	cell viability ([13]; 10000 nM) [%]	cell viability ([14]; 1 nM) [%]	cell viability ([14]; 10 nM) [%]	cell viability ([14]; 100 nM) [%]	cell viability ([14]; 1000 nM) [%]	cell viability ([14]; 10000 nM) [%]	cell viability ([15]; 1 nM) [%]	cell viability ([15]; 10 nM) [%]	cell viability ([15]; 100 nM) [%]	cell viability ([15]; 1000 nM) [%]	cell viability ([15]; 10000 nM) [%]
CCOC(=O)n1ccn(C)c1=S [carbimazole]	> 10	> 10	> 10	> 10	> 10	0	0	0	0	0	94.7	99.8	93.3	90.6	103	92.4	95.4	101	104	107	99.5	91	94.4	101	103	98	98.7	100	104	100	90.9	89.5	91.2	93.7	108
CCCN(CCC)[C@H]1CCc2ccc(O)cc2C1 [7-hydroxy-DPAT]	> 10	> 10	> 10	> 10	> 10	0	0	0	0	0	112	106	92.8	99.9	99.5	92.7	89.7	98.7	102	96	101	97.1	101	104	103	96.5	95.4	106	100	96.4	101	105	101	104	99.4
COC(=O)C1=C(C#N)NC(C)=C(C(=O)OC(C)C)C1c1cccc([N+](=O)[O-])c1 (stereo not given) [nilvadipine]	> 10	> 10	> 10	> 10	> 10	0	0	0	0	0	108	98.6	109	96.1	95	90.9	101	90.8	97.5	120	96.6	98.4	97	96.7	104	96.1	84.7	92.7	94.1	96	95.9	93.6	100	97.9	109
O=[N+]([O-])c1cccc2c(Br)n[nH]c12 [3-bromo-7-nitroindazole]	> 10	> 10	> 10	> 10	> 10	0	0	0	0	0	94.4	99	98.3	97.5	102	102	88.4	97.3	87	98.2	97.6	101	99	104	98.8	106	102	93.8	104	99.3	100	97.5	98.6	95.8	91.2
CC(C)(C)NCC(O)COc1cccc2[nH]c(=O)[nH]c12 (stereo not given)	> 10	> 10	> 10	> 10	> 10	0	0	0	0	0	97.7	93.3	105	110	113	94.9	101	88.6	106	106	96.8	97	97.4	97.9	101	96.7	100	96.5	97	97.9	98.7	97.2	97.1	103	105
NCCCC[C@H](NC(=O)[C@@H]1CCCN1C(=O)[C@@H]1CSSC[C@H](N)C(=O)N[C@@H](Cc2ccc(O)cc2)C(=O)N[C@@H](Cc2ccccc2)C(=O)N[C@@H](CCC(N)=O)C(=O)N[C@@H](CC(N)=O)C(=O)N1)C(=O)NCC(N)=O [lypressin]	> 10	> 10	> 10	> 10	> 10	0	0	0	0	0	105	97.9	97.8	100	100	95.6	98.1	103	93.4	92.2	99.7	105	97.5	98.8	101	98.6	99.6	97.8	102	101	97.4	101	95.4	99.1	100
CN1[C@@H]2CC[C@H]1C[C@@H](OC(=O)N1Cc3ccccc3NC1=O)C2 [DAU-5884]	> 10	> 10	> 10	> 10	> 10	0	0	0	0	0	105	93.3	94.5	110	97.3	96.5	105	98.1	99.3	94.4	97.2	102	94.4	100	100	93.3	91.7	89.5	97.3	92.7	101	94.6	97.9	96.8	91.3
CC[C@@H]1C(=O)N(C)c2cnc(Nc3ccc(C(=O)NC4CCN(C)CC4)cc3OC)nc2N1C1CCCC1 [BI-2536]	0.0445	1.66	0.132	0.148	0.805	26.1	8.6	19.8	13.6	12.8	106	92.2	27.4	24.2	7.7	93.3	97.3	85.4	77.7	3.8	97	103	53.1	28	8.1	94.4	96.5	56.8	61.3	31.5	96.2	98.7	103	37.4	1.1
CC(C)(O)CNc1nc(Nc2ccnc(C(F)(F)F)c2)nc(-c2cccc(C(F)(F)F)n2)n1 [enasidenib]	> 10	> 10	> 10	> 10	> 10	0	0.5	0	0.5	0	106	96.9	110	106	91.7	96	106	103	87.8	92.7	101	104	99.9	104	92	94.5	115	107	102	79.3	98.2	94.2	97.9	99.6	101
NCCc1ccc(O)c(O)c1 [dopamine]	> 10	> 10	> 10	> 10	> 10	0	0	0	0	0	106	107	95.1	115	99.6	100	100	100	99.8	109	101	96.6	101	100	100	106	97.7	92.5	91.1	89.9	103	106	102	97	99.4
C[C@@H]1CC[C@@]2(NC1)O[C@H]1C[C@H]3[C@@H]4CC=C5C[C@@H](O[C@@H]6O[C@H](CO)[C@@H](O[C@@H]7O[C@@H](C)[C@H](O)[C@@H](O)[C@H]7O)[C@H](O)[C@H]6O[C@@H]6O[C@@H](C)[C@H](O)[C@@H](O)[C@H]6O)CC[C@]5(C)[C@H]4CC[C@]3(C)[C@H]1[C@@H]2C [solamargine]	2.32	3.34	3.1	2.86	2.51	7.2	5.3	5.7	6.1	6.8	104	102	102	89.8	0.2	89	96.7	85.8	103	1	95.7	103	97.5	99.1	0.4	92	98	94.6	96	0.4	101	95.2	97.4	91.9	0
COc1cc(F)c(C(C)C)cc1-c1ccc(C(F)(F)F)cc1CN1C(=O)O[C@H](c2cc(C(F)(F)F)cc(C(F)(F)F)c2)[C@@H]1C [anacetrapib]	> 10	> 10	> 10	> 10	> 10	0	0	0	0	0	108	103	98.2	92.6	98.8	97.7	97	108	93.6	102	96.6	100	101	99.8	97.7	98.1	90.8	100	96.1	93.8	108	107	97.6	102	93.2
CNCC[C@@H](Oc1ccccc1C)c1ccccc1 [atomoxetine]	> 10	> 10	> 10	> 10	> 10	0	1.2	0	0	0	87.3	98.5	100	104	93.5	106	104	98.7	86	96.3	106	97.5	101	94.8	101	99	96.8	98.3	97.8	92.8	106	106	102	106	99.1
O=C(O)P(=O)(O)O [foscarnet]	> 10	> 10	> 10	> 10	> 10	0	0	0	0	0	102	105	99.9	104	96.7	110	105	106	91.9	93.4	104	100	99.2	99.1	102	97.4	103	97.5	102	102	106	104	98.3	99.5	101
